ChEMBL document CHEMBL1275380, “Studies toward the structural optimization of novel thiazolylhydrazone-based potent antitrypanosomal agents” (Bioorg Med Chem, 2010)
Calls of active or inactive are those of the source. The calls are words filed in the database; no cut-off is given here.

Experiments:
[1] = molecular target: Cruzipain (Trypanosoma cruzi) (UniProt P25779); experiment: Inhibition of Trypanosoma cruzi cruzaine in presence of 0.01% Triton X-100
[2] = molecular target: Cruzipain (Trypanosoma cruzi) (UniProt P25779); experiment: Inhibition of Trypanosoma cruzi cruzaine at 100 uM pre-incubated for 10 mins
[3] = molecular target: Cruzipain (Trypanosoma cruzi) (UniProt P25779); experiment: Inhibition of Trypanosoma cruzi cruzaine in absence of 0.01% Triton X-100
Trypanosoma cruzi [4] = experiment: Antitrypanosomal activity against epimastigotes of Trypanosoma cruzi Y assessed as viability at 40 uM after 11 days by trypan blue exclusion assay; format: functional; conditions: 264 h
Trypanosoma cruzi [5] = experiment: Antitrypanosomal activity against epimastigotes of Trypanosoma cruzi Y assessed as viability after 11 days by trypan blue exclusion assay; format: functional, organism-based; conditions: 264 h
Trypanosoma cruzi [6] = experiment: Antitrypanosomal activity against trypomastigotes of Trypanosoma cruzi Y assessed as viability after 24 hrs by trypan blue exclusion assay; format: functional, organism-based
[7] = Cytotoxicity against BALB/c mouse Splenocyte assessed as non-cytotoxic concentration after 24 hrs by [3H]-thymidine incorporation assay relative to control; format: cell-based; conditions: splenocytes, read-out: Activity
Trypanosoma cruzi [8] = experiment: Antitrypanosomal activity against epimastigotes of Trypanosoma cruzi Y assessed as viability at 40 uM after 15 hrs by trypan blue exclusion assay; format: functional
Trypanosoma cruzi [9] = experiment: Antitrypanosomal activity against epimastigotes of Trypanosoma cruzi Y assessed as viability at 40 uM after 7 days by trypan blue exclusion assay; format: functional; conditions: 168 h
Mus musculus = experiment: Toxicity in Swiss mouse assessed as mortality at 100 mg/kg, ip after 72 hrs; format: organism-based; parameters: dose 100 mg/kg, route intraperitoneal; conditions: in vivo
Cruzipain = Cruzipain (Trypanosoma cruzi, UniProt P25779); experiment: Inhibition of Trypanosoma cruzi cruzaine pre-incubated for 10 mins
[10] = molecular target: Cruzipain (Trypanosoma cruzi) (UniProt P25779); experiment: Inhibition of Trypanosoma cruzi cruzaine without pre-incubation; conditions: TDE = time-dependent effect

Sequence of Cruzipain (P25779 whole entry): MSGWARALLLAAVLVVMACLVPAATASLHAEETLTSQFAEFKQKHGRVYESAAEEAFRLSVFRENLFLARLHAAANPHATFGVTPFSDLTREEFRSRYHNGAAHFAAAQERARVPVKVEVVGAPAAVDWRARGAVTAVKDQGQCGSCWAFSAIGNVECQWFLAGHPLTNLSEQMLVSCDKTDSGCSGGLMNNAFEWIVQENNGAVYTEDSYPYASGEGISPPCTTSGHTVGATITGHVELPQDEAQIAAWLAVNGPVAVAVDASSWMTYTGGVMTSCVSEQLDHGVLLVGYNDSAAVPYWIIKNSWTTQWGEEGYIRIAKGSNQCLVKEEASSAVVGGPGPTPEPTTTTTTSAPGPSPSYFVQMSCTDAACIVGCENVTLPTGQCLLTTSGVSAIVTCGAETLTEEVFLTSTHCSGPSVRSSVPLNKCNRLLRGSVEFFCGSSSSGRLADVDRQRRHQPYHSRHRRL
Sequence of Cruzipain (Trypanosoma cruzi) (P25779 123-467 limits assumed): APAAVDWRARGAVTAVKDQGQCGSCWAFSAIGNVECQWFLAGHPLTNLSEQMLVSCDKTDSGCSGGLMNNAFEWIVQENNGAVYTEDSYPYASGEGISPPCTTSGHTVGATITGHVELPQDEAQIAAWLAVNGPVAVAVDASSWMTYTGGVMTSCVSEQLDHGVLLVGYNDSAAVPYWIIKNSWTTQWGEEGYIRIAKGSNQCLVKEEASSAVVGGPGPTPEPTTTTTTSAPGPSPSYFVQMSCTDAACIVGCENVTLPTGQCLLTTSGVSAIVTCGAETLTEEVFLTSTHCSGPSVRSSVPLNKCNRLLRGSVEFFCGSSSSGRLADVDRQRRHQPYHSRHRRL

SMILES | inhibition [1] | inhibition [2] [%] | inhibition [3] | inhibition at 40 µM (Trypanosoma cruzi [4]) [%] | IC50 (Trypanosoma cruzi [5]) [µM] | IC50 (Trypanosoma cruzi [6]) [µM] | MNTC at 24 h [7] [µg/mL] | inhibition at 40 µM (Trypanosoma cruzi [8]) [%] | inhibition at 40 µM (Trypanosoma cruzi [9]) [%] | Activity (Mus musculus) | IC50 (Cruzipain) [µM] | inhibition [10]
CCC1S/C(=N/N=C(\C)CSc2ccc(S)cc2)NC1=O (configuration not stated) | Active | 11 | Active | 41 | 40.8 | 54.6 | > 100 | – | – | – | – | –
O=C1CS/C(=N/N=C/CSc2ccc(Cl)cc2)N1 | Active | 11 | Active | 8 | 43.9 | 82.4 | > 100 | – | – | – | – | –
CCC1S/C(=N/N=C/CSc2ccc(Br)cc2)NC1=O (configuration not stated) | Active | 38 | Active | 77 | 26.9 | – | > 100 | 0 | 61 | Non-toxic | – | –
NC(=S)N/N=C/CCc1ccccc1 | Active | – | Active | – | 3.7 | 3.7 | < 1 | – | – | – | – | –
CC1S/C(=N/N=C/CCSc2ccccc2)NC1=S (configuration not stated) | Active | 92 | Active | – | 8.1 | 2.3 | 1 | – | 94 | Toxic | 0.06 | –
NC(=S)N/N=C/C=C/c1ccccc1 | Active | 35 | Active | 99 | 7.3 | 7.4 | < 1 | – | – | – | – | –
Cc1ccc(SC/C=N/N=C2\NC(=S)C(C)S2)cc1 (configuration not stated) | Active | 6 | Active | – | 6.1 | 4.5 | < 1 | – | – | Toxic | – | –
CCC1S/C(=N/N=C(\C)CSc2ccc(Cl)cc2)NC1=O (configuration not stated) | Active | 31 | Active | 24 | 62.9 | 148 | > 100 | – | – | – | – | –
CC/C(=N\N=C(\N)S)c1cccc(Br)c1 | – | 92 | – | – | 15.4 | 11.1 | – | – | – | – | – | tde
O=C1CS/C(=N/N=C/CSc2ccc(Br)cc2)N1 | Active | 8 | Active | 31.5 | 42.9 | – | > 100 | – | – | – | – | –
Cc1ccc(SC/C=N/N=C2\NC(=O)C(C)S2)cc1 (configuration not stated) | Active | 80 | Active | 97 | 6.7 | 84.8 | > 100 | 85 | 97 | Non-toxic | 20.4 | –
CC/C(=N\NC(N)=S)c1cccc(Br)c1 | – | – | – | – | – | – | 1 | – | – | – | – | –
C/C(=N\N=C(\N)S)c1ccc(Cl)c(Cl)c1 | – | 96 | – | – | 8.5 | 39.5 | 1 | – | – | – | 0.1 | tde
NC(=S)N/N=C/CSc1ccccc1 | Active | 28 | Active | 100 | 13.4 | 158 | 5 | – | – | Non-toxic | – | –
CC1S/C(=N/N=C/CCSc2ccccc2)NC1=O (configuration not stated) | Active | 93 | Active | 100 | 2.9 | 10 | > 100 | 75 | 100 | Non-toxic | 0.4 | –
CCC1S/C(=N/N=C(\C)CSc2ccc(C)cc2)NC1=O (configuration not stated) | Active | 22 | Active | 40 | 45.1 | 76.9 | > 100 | – | – | – | – | –
CC1S/C(=N/N=C/CCSc2ccc(Cl)cc2)NC1=O (configuration not stated) | Active | 98 | Active | 10 | 32.1 | – | > 100 | – | – | – | 0.2 | –
CC1S/C(=N/N=C/CSc2ccccc2)NC1=O (configuration not stated) | Active | 5 | Active | 4 | 167 | 44.2 | > 100 | – | – | – | – | –
O=C1CS/C(=N/N=C/C=C/c2ccccc2)N1 | Active | 8 | Active | – | 2.3 | 10.1 | < 1 | – | – | – | – | –
O=C(Cn1ccnc1[N+](=O)[O-])NCc1ccccc1 [BENZNIDAZOLE] | – | – | – | 97 | – | – | 25 | 43 | 85 | Non-toxic | – | –
